# Measurements reported in ChEMBL document CHEMBL5303573, “Mapping human microbiome drug metabolism by gut bacteria and their genes” (Nature, 2019).
# Assay: The drug is tested on Bifidobacterium breve strain: DSM20213 for biotransformation. The drug concentrations were measured before and after a 12-h incubation by liquid-chromatography-coupled mass spectrometry (LC–MS)
# Conditions: 2 µM
row,SMILES,Bacterial Biotransformation
1,OC(CCN1CCCCC1)(c1ccccc1)C1CCCCC1 (configuration not stated) [TRIHEXYPHENIDYL],Compound NOT metabolized

# Assay: The drug is tested on Bacteroides caccae strain: ATCC43185 for biotransformation. The drug concentrations were measured before and after a 12-h incubation by liquid-chromatography-coupled mass spectrometry (LC–MS)
# Conditions: 2 µM
row,SMILES,Bacterial Biotransformation
1,C[C@]12CCC(=O)C=C1[C@@H]1C[C@@H]1[C@H]1[C@@H]3[C@@H]4C[C@@H]4[C@@]4(CCC(=O)O4)[C@@]3(C)CC[C@@H]12 [DROSPIRENONE],Compound NOT metabolized
2,OC(CCN1CCCCC1)(c1ccccc1)C1CCCCC1 (configuration not stated) [TRIHEXYPHENIDYL],Compound NOT metabolized
3,C#C[C@]1(OC(C)=O)CC[C@H]2[C@@H]3CCC4=C[C@@H](OC(C)=O)CC[C@@H]4[C@H]3CC[C@@]21C [ETHYNODIOL DIACETATE],Compound NOT metabolized

# Assay: The drug is tested on Bacteroides cellulosilyticus strain: DSM14838 for biotransformation. The drug concentrations were measured before and after a 12-h incubation by liquid-chromatography-coupled mass spectrometry (LC–MS)
# Conditions: 2 µM
row,SMILES,Bacterial Biotransformation
1,C[C@]12CCC(=O)C=C1[C@@H]1C[C@@H]1[C@H]1[C@@H]3[C@@H]4C[C@@H]4[C@@]4(CCC(=O)O4)[C@@]3(C)CC[C@@H]12 [DROSPIRENONE],Compound NOT metabolized
2,OC(CCN1CCCCC1)(c1ccccc1)C1CCCCC1 (configuration not stated) [TRIHEXYPHENIDYL],Compound NOT metabolized
3,C#C[C@]1(OC(C)=O)CC[C@H]2[C@@H]3CCC4=C[C@@H](OC(C)=O)CC[C@@H]4[C@H]3CC[C@@]21C [ETHYNODIOL DIACETATE],Compound NOT metabolized

# Assay: The drug is tested on Bacteroides finegoldii strain: DSM17565 for biotransformation. The drug concentrations were measured before and after a 12-h incubation by liquid-chromatography-coupled mass spectrometry (LC–MS)
# Conditions: 2 µM
row,SMILES,Bacterial Biotransformation
1,C[C@]12CCC(=O)C=C1[C@@H]1C[C@@H]1[C@H]1[C@@H]3[C@@H]4C[C@@H]4[C@@]4(CCC(=O)O4)[C@@]3(C)CC[C@@H]12 [DROSPIRENONE],Compound NOT metabolized
2,OC(CCN1CCCCC1)(c1ccccc1)C1CCCCC1 (configuration not stated) [TRIHEXYPHENIDYL],Compound NOT metabolized
3,C#C[C@]1(OC(C)=O)CC[C@H]2[C@@H]3CCC4=C[C@@H](OC(C)=O)CC[C@@H]4[C@H]3CC[C@@]21C [ETHYNODIOL DIACETATE],Compound NOT metabolized

# Assay: The drug is tested on Bacteroides fragilis strain: ATCC43859 for biotransformation. The drug concentrations were measured before and after a 12-h incubation by liquid-chromatography-coupled mass spectrometry (LC–MS)
# Conditions: 2 µM
row,SMILES,Bacterial Biotransformation
1,OC(CCN1CCCCC1)(c1ccccc1)C1CCCCC1 (configuration not stated) [TRIHEXYPHENIDYL],Compound NOT metabolized

# Assay: The drug is tested on Bacteroides ovatus strain: ATCC8483 for biotransformation. The drug concentrations were measured before and after a 12-h incubation by liquid-chromatography-coupled mass spectrometry (LC–MS)
# Conditions: 2 µM
row,SMILES,Bacterial Biotransformation
1,OC(CCN1CCCCC1)(c1ccccc1)C1CCCCC1 (configuration not stated) [TRIHEXYPHENIDYL],Compound NOT metabolized
2,C#C[C@]1(OC(C)=O)CC[C@H]2[C@@H]3CCC4=C[C@@H](OC(C)=O)CC[C@@H]4[C@H]3CC[C@@]21C [ETHYNODIOL DIACETATE],Compound NOT metabolized

# Assay: The drug is tested on Blautia luti strain: DSM14534 for biotransformation. The drug concentrations were measured before and after a 12-h incubation by liquid-chromatography-coupled mass spectrometry (LC–MS)
# Assay type: ADME
# Set-up: dose 2 uM, timepoint 0 vs 12 hours
# Conditions: 2 µM
row,SMILES,Bacterial Biotransformation
1,C[C@]12CCC(=O)C=C1[C@@H]1C[C@@H]1[C@H]1[C@@H]3[C@@H]4C[C@@H]4[C@@]4(CCC(=O)O4)[C@@]3(C)CC[C@@H]12 [DROSPIRENONE],Compound NOT metabolized
2,OC(CCN1CCCCC1)(c1ccccc1)C1CCCCC1 (configuration not stated) [TRIHEXYPHENIDYL],Compound NOT metabolized

# Assay: The drug is tested on Clostridium sp. strain: fecal isolate for biotransformation. The drug concentrations were measured before and after a 12-h incubation by liquid-chromatography-coupled mass spectrometry (LC–MS)
# Conditions: 2 µM
row,SMILES,Bacterial Biotransformation
1,C[C@]12CCC(=O)C=C1[C@@H]1C[C@@H]1[C@H]1[C@@H]3[C@@H]4C[C@@H]4[C@@]4(CCC(=O)O4)[C@@]3(C)CC[C@@H]12 [DROSPIRENONE],Compound NOT metabolized
2,OC(CCN1CCCCC1)(c1ccccc1)C1CCCCC1 (configuration not stated) [TRIHEXYPHENIDYL],Compound metabolized
3,C#C[C@]1(OC(C)=O)CC[C@H]2[C@@H]3CCC4=C[C@@H](OC(C)=O)CC[C@@H]4[C@H]3CC[C@@]21C [ETHYNODIOL DIACETATE],Compound NOT metabolized

# Assay: The drug is tested on Clostridium scindens strain: ATCC35704 for biotransformation. The drug concentrations were measured before and after a 12-h incubation by liquid-chromatography-coupled mass spectrometry (LC–MS)
# Conditions: 2 µM
row,SMILES,Bacterial Biotransformation
1,C[C@]12CCC(=O)C=C1[C@@H]1C[C@@H]1[C@H]1[C@@H]3[C@@H]4C[C@@H]4[C@@]4(CCC(=O)O4)[C@@]3(C)CC[C@@H]12 [DROSPIRENONE],Compound NOT metabolized
2,OC(CCN1CCCCC1)(c1ccccc1)C1CCCCC1 (configuration not stated) [TRIHEXYPHENIDYL],Compound NOT metabolized
3,C#C[C@]1(OC(C)=O)CC[C@H]2[C@@H]3CCC4=C[C@@H](OC(C)=O)CC[C@@H]4[C@H]3CC[C@@]21C [ETHYNODIOL DIACETATE],Compound NOT metabolized

# Assay: The drug is tested on Clostridium symbiosum strain: ATCC14940 for biotransformation. The drug concentrations were measured before and after a 12-h incubation by liquid-chromatography-coupled mass spectrometry (LC–MS)
# Conditions: 2 µM
row,SMILES,Bacterial Biotransformation
1,C[C@]12CCC(=O)C=C1[C@@H]1C[C@@H]1[C@H]1[C@@H]3[C@@H]4C[C@@H]4[C@@]4(CCC(=O)O4)[C@@]3(C)CC[C@@H]12 [DROSPIRENONE],Compound NOT metabolized
2,OC(CCN1CCCCC1)(c1ccccc1)C1CCCCC1 (configuration not stated) [TRIHEXYPHENIDYL],Compound NOT metabolized

# Assay: The drug is tested on Eubacterium hallii strain: DSM3353 for biotransformation. The drug concentrations were measured before and after a 12-h incubation by liquid-chromatography-coupled mass spectrometry (LC–MS)
# Conditions: anaerobutyricum hallii, 2 µM
row,SMILES,Bacterial Biotransformation
1,C[C@]12CCC(=O)C=C1[C@@H]1C[C@@H]1[C@H]1[C@@H]3[C@@H]4C[C@@H]4[C@@]4(CCC(=O)O4)[C@@]3(C)CC[C@@H]12 [DROSPIRENONE],Compound NOT metabolized
2,OC(CCN1CCCCC1)(c1ccccc1)C1CCCCC1 (configuration not stated) [TRIHEXYPHENIDYL],Compound NOT metabolized

# Assay: The drug is tested on Eubacterium rectale strain: ATCC33656 for biotransformation. The drug concentrations were measured before and after a 12-h incubation by liquid-chromatography-coupled mass spectrometry (LC–MS)
# Conditions: agathobacter rectalis, 2 µM
row,SMILES,Bacterial Biotransformation
1,C[C@]12CCC(=O)C=C1[C@@H]1C[C@@H]1[C@H]1[C@@H]3[C@@H]4C[C@@H]4[C@@]4(CCC(=O)O4)[C@@]3(C)CC[C@@H]12 [DROSPIRENONE],Compound NOT metabolized
2,OC(CCN1CCCCC1)(c1ccccc1)C1CCCCC1 (configuration not stated) [TRIHEXYPHENIDYL],Compound NOT metabolized
3,C#C[C@]1(OC(C)=O)CC[C@H]2[C@@H]3CCC4=C[C@@H](OC(C)=O)CC[C@@H]4[C@H]3CC[C@@]21C [ETHYNODIOL DIACETATE],Compound NOT metabolized

# Assay: The drug is tested on Subdoligranulum variabile strain: DSM15176 for biotransformation. The drug concentrations were measured before and after a 12-h incubation by liquid-chromatography-coupled mass spectrometry (LC–MS)
# Conditions: 2 µM
row,SMILES,Bacterial Biotransformation
1,C[C@]12CCC(=O)C=C1[C@@H]1C[C@@H]1[C@H]1[C@@H]3[C@@H]4C[C@@H]4[C@@]4(CCC(=O)O4)[C@@]3(C)CC[C@@H]12 [DROSPIRENONE],Compound NOT metabolized
2,OC(CCN1CCCCC1)(c1ccccc1)C1CCCCC1 (configuration not stated) [TRIHEXYPHENIDYL],Compound NOT metabolized
3,C#C[C@]1(OC(C)=O)CC[C@H]2[C@@H]3CCC4=C[C@@H](OC(C)=O)CC[C@@H]4[C@H]3CC[C@@]21C [ETHYNODIOL DIACETATE],Compound NOT metabolized

# Assay: The drug is tested on Enterobacter cancerogenus strain: ATCC35316 for biotransformation. The drug concentrations were measured before and after a 12-h incubation by liquid-chromatography-coupled mass spectrometry (LC–MS)
# Conditions: 2 µM
row,SMILES,Bacterial Biotransformation
1,C#C[C@]1(OC(C)=O)CC[C@H]2[C@@H]3CCC4=C[C@@H](OC(C)=O)CC[C@@H]4[C@H]3CC[C@@]21C [ETHYNODIOL DIACETATE],Compound NOT metabolized

# Assay: The drug is tested on Escherichia coli strain: BW25113 for biotransformation. The drug concentrations were measured before and after a 12-h incubation by liquid-chromatography-coupled mass spectrometry (LC–MS)
# Conditions: 2 µM
row,SMILES,Bacterial Biotransformation
1,C[C@]12CCC(=O)C=C1[C@@H]1C[C@@H]1[C@H]1[C@@H]3[C@@H]4C[C@@H]4[C@@]4(CCC(=O)O4)[C@@]3(C)CC[C@@H]12 [DROSPIRENONE],Compound NOT metabolized
2,OC(CCN1CCCCC1)(c1ccccc1)C1CCCCC1 (configuration not stated) [TRIHEXYPHENIDYL],Compound NOT metabolized

# Conditions: bacteroides fragilis, 12 h, 2 µM
# Description: The drug is tested on Bacteroides fragilis strain: NCTC 9343 for biotransformation. The drug concentrations were measured before and after a 12-h incubation by liquid-chromatography-coupled mass spectrometry (LC–MS)
row,SMILES,Bacterial Biotransformation
1,C[C@]12CCC(=O)C=C1[C@@H]1C[C@@H]1[C@H]1[C@@H]3[C@@H]4C[C@@H]4[C@@]4(CCC(=O)O4)[C@@]3(C)CC[C@@H]12 [DROSPIRENONE],Compound metabolized
2,OC(CCN1CCCCC1)(c1ccccc1)C1CCCCC1 (configuration not stated) [TRIHEXYPHENIDYL],Compound NOT metabolized
3,C#C[C@]1(OC(C)=O)CC[C@H]2[C@@H]3CCC4=C[C@@H](OC(C)=O)CC[C@@H]4[C@H]3CC[C@@]21C [ETHYNODIOL DIACETATE],Compound NOT metabolized

# Conditions: bacteroides fragilis, 12 h, 2 µM
# Remark: another data set of the same source
# Description: The drug is tested on Bacteroides fragilis strain: DS-208 for biotransformation. The drug concentrations were measured before and after a 12-h incubation by liquid-chromatography-coupled mass spectrometry (LC–MS)
row,SMILES,Bacterial Biotransformation
1,C[C@]12CCC(=O)C=C1[C@@H]1C[C@@H]1[C@H]1[C@@H]3[C@@H]4C[C@@H]4[C@@]4(CCC(=O)O4)[C@@]3(C)CC[C@@H]12 [DROSPIRENONE],Compound NOT metabolized
2,OC(CCN1CCCCC1)(c1ccccc1)C1CCCCC1 (configuration not stated) [TRIHEXYPHENIDYL],Compound NOT metabolized
3,C#C[C@]1(OC(C)=O)CC[C@H]2[C@@H]3CCC4=C[C@@H](OC(C)=O)CC[C@@H]4[C@H]3CC[C@@]21C [ETHYNODIOL DIACETATE],Compound NOT metabolized

# Conditions: bacteroides thetaiotaomicron, 12 h, 2 µM
# Description: The drug is tested on Bacteroides thetaiotaomicron strain: VPI-5482 for biotransformation. The drug concentrations were measured before and after a 12-h incubation by liquid-chromatography-coupled mass spectrometry (LC–MS)
row,SMILES,Bacterial Biotransformation
1,OC(CCN1CCCCC1)(c1ccccc1)C1CCCCC1 (configuration not stated) [TRIHEXYPHENIDYL],Compound NOT metabolized
2,C#C[C@]1(OC(C)=O)CC[C@H]2[C@@H]3CCC4=C[C@@H](OC(C)=O)CC[C@@H]4[C@H]3CC[C@@]21C [ETHYNODIOL DIACETATE],Compound NOT metabolized

# Conditions: bacteroides thetaiotaomicron, 12 h, 2 µM
# Remark: another data set of the same source
# Description: The drug is tested on Bacteroides thetaiotaomicron strain: 3731 for biotransformation. The drug concentrations were measured before and after a 12-h incubation by liquid-chromatography-coupled mass spectrometry (LC–MS)
row,SMILES,Bacterial Biotransformation
1,C[C@]12CCC(=O)C=C1[C@@H]1C[C@@H]1[C@H]1[C@@H]3[C@@H]4C[C@@H]4[C@@]4(CCC(=O)O4)[C@@]3(C)CC[C@@H]12 [DROSPIRENONE],Compound NOT metabolized
2,C#C[C@]1(OC(C)=O)CC[C@H]2[C@@H]3CCC4=C[C@@H](OC(C)=O)CC[C@@H]4[C@H]3CC[C@@]21C [ETHYNODIOL DIACETATE],Compound NOT metabolized

# Conditions: parabacteroides distasonis, 12 h, 2 µM
# Description: The drug is tested on Parabacteroides distasonis strain: ATCC8503 for biotransformation. The drug concentrations were measured before and after a 12-h incubation by liquid-chromatography-coupled mass spectrometry (LC–MS)
row,SMILES,Bacterial Biotransformation
1,C[C@]12CCC(=O)C=C1[C@@H]1C[C@@H]1[C@H]1[C@@H]3[C@@H]4C[C@@H]4[C@@]4(CCC(=O)O4)[C@@]3(C)CC[C@@H]12 [DROSPIRENONE],Compound NOT metabolized
2,OC(CCN1CCCCC1)(c1ccccc1)C1CCCCC1 (configuration not stated) [TRIHEXYPHENIDYL],Compound NOT metabolized
3,C#C[C@]1(OC(C)=O)CC[C@H]2[C@@H]3CCC4=C[C@@H](OC(C)=O)CC[C@@H]4[C@H]3CC[C@@]21C [ETHYNODIOL DIACETATE],Compound NOT metabolized
